This passage reports cytotoxicity results from ChEMBL document CHEMBL3507680, “University of Dundee, Gates Library screen for HepG2 cell viability”.

Structures are written as SMILES.

A short description of this data set: Human HepG2 cell viability assay in 384 well format. Format: toxicity, cell-based. Conditions: HepG2 cells, read-out: Inhibition. On the set-up: dose 125 nL, time 70.5 hour; concentration not given beside the values.

In the case of `C/N=C1\c2cc3cc(OC)ccc3n2CCN1C`, the cytotoxicity at 70.5 h was -6.1%.

In the case of `c1coc(CN2CCn3c(CN4CCOCC4)nnc3C2)c1`, the cytotoxicity at 70.5 h is -1.27%.

As to `Cc1noc([C@]23COC[C@H]2CN(S(C)(=O)=O)C3)n1`, the cytotoxicity at 70.5 h is -1.56%.

For `CCOC1CC2(CCN(CCO)CC2)c2ccc(C)cc21` (centres undefined), the cytotoxicity at 70.5 h came to 1.71%.

For the compound `CN(C)C(=O)NCc1nnc2n1CCN(Cc1ccsc1)C2`, the cytotoxicity at 70.5 h was 3.34%.

For the compound `O=C(c1cc(-c2ccn(CC3CC3)n2)n2ccccc12)N1CCOCC1`, the cytotoxicity at 70.5 h is -2.8%.

Take `CN(C)C[C@H]1OC[C@@H]2CCN(C(=O)NCc3cccc(F)c3)C[C@@H]21`: the cytotoxicity at 70.5 h is -5.72%.

With `O=C(C1CN(Cc2ccoc2)CC12CCOCC2)N1CCCC1` (centres undefined), the cytotoxicity at 70.5 h turned out to be 7.01%.

Consider `O=C(O)c1cc(-c2ccn(CC3CC3)n2)n2ccccc12`, for which the cytotoxicity at 70.5 h is -1.77%.

With `CC(=O)N1CC[C@H]2C(=O)N(c3ccsc3)CCO[C@H]2C1`, the cytotoxicity at 70.5 h is -2.46%.

`CS(=O)(=O)NCc1noc2c1CN(C(=O)c1ccsc1)CC2`: the cytotoxicity at 70.5 h was -7.43%.

Consider `O=C(NCc1ccco1)N1CCCCC1c1nc(-c2ccncc2)no1` (centres undefined), for which the cytotoxicity at 70.5 h is -12.6%.

For the compound `Cc1ccc(N2N=C(C(=O)O)S(=O)(=O)c3cccnc32)cc1`, the cytotoxicity at 70.5 h is -8.77%.

In the case of `CCc1nn2c(=N)c(C#N)n[nH]c2c1-c1ccc(OC)cc1`, the cytotoxicity at 70.5 h was -18.3%.

Consider `Cn1c(=O)n(C)c2cc(NS(=O)(=O)Cc3ccccc3)ccc21`, for which the cytotoxicity at 70.5 h is -6.3%.

For the compound `COc1ccc(-c2c(C(C)C)nn3c(=N)c(C#N)n[nH]c23)cc1`, the cytotoxicity at 70.5 h is -20.1%.

Turning to `COc1ccc(-c2c(C)nn3c(=N)c(C#N)n[nH]c23)cc1OC`, the cytotoxicity at 70.5 h was -15.3%.

Take `Cc1noc2nc3c(c(C(=O)/N=c4\[nH]ncs4)c12)CCC3`: the cytotoxicity at 70.5 h amounted to 25.6%.

For the compound `COC(=O)CC1CCN(C(=O)c2ccc(-n3nnnc3C)cc2)CC1`, the cytotoxicity at 70.5 h was -11.6%.

For the compound `O=c1cc(-c2ccc(F)cc2)nc2n1CCCCC2`, the cytotoxicity at 70.5 h was -14%.

Turning to `COC(=O)c1cc2c(OC)c(OC)c(OC)cc2[nH]1`, the cytotoxicity at 70.5 h was -19.4%.

With `COC(=O)c1cc2c(OC)c(C)c(OC)cc2[nH]1`, the cytotoxicity at 70.5 h was -9.36%.

`CCOC(=O)Cn1cccc(S(=O)(=O)N2CCCC2)c1=O`: the cytotoxicity at 70.5 h is -26.6%.

Take `O=S(=O)(NC1=NCN(CCc2cccs2)CN1)c1ccc(Cl)cc1`: the cytotoxicity at 70.5 h is -14.8%.

For `NC(=O)C1CCN(C(=O)CCn2ccc3ccc(Br)cc32)CC1`, the cytotoxicity at 70.5 h is -33.3%.

As for `CN(C(=O)Cn1nc(-c2ccc(Br)cc2)ccc1=O)C1CCS(=O)(=O)C1` (centres undefined), the cytotoxicity at 70.5 h was -22.4%.

As for `O=C(NCCCN1CCCC1=O)c1nc(-c2ccc3[nH]ccc3c2)no1`, the cytotoxicity at 70.5 h was -29.3%.

With `O=C(NCCN1CCCCC1)c1nc(-c2cccc3[nH]ccc23)no1`, the cytotoxicity at 70.5 h was 13.5%.

In the case of `CNc1oc(-c2cc(S(=O)(=O)N3CCCC3)c(C)o2)nc1C#N`, the cytotoxicity at 70.5 h is -25%.

For `COCCNC(=O)c1nc(-c2ccc3cc[nH]c3c2)no1`, the cytotoxicity at 70.5 h is -17.1%.

On to `CC(O)CNC(=O)CCc1nc2ncccc2[nH]1` (centres undefined), for which the cytotoxicity at 70.5 h was -29.9%.

Consider `O=C(NCCCO)c1nc(-c2ccc3cc[nH]c3c2)no1`, for which the cytotoxicity at 70.5 h is -7.51%.

Turning to `CC(C)CCNC(=O)C1CCN(c2ccc3nnc(C(C)C)n3n2)CC1`, the cytotoxicity at 70.5 h was -30%.

In the case of `O=C1CC(c2ccc(O)cc2)c2c(n3ccsc3nc2=O)N1` (centres undefined), the cytotoxicity at 70.5 h was -29.2%.

As to `CC(C)n1c(=O)nc2n1C(=O)N(c1ccc(Br)cc1)C2`, the cytotoxicity at 70.5 h was -16.1%.

Regarding `Cc1oc(-c2nc(C#N)c(NC(C)C)o2)cc1S(=O)(=O)N1CCCCC1`, the cytotoxicity at 70.5 h is -21.8%.

As for `CN(C(=O)Cn1nc(-c2ccccc2Cl)ccc1=O)C1CCS(=O)(=O)C1` (centres undefined), the cytotoxicity at 70.5 h was -18.5%.

In the case of `Cc1oc(-c2nc(C#N)c(NC3CC3)o2)cc1S(=O)(=O)N1CCCC1`, the cytotoxicity at 70.5 h was -25.9%.

Turning to `CN1CCN(Cn2nc(-c3cccs3)ccc2=O)CC1`, the cytotoxicity at 70.5 h was -29.8%.

For the compound `COc1ccc(C)cc1-c1csc(N)c1C#N`, the cytotoxicity at 70.5 h worked out at 13.2%.

In the case of `COc1ccc(-c2csc(N)c2C#N)cc1`, the cytotoxicity at 70.5 h is -24.3%.

Consider `O=C1C(CS(=O)(=O)Nc2ccccc2)=NC(=O)n2cccc21`, for which the cytotoxicity at 70.5 h was -7.6%.

In the case of `CC(C)c1ccc(NS(=O)(=O)CC2=NC(=O)n3cccc3C2=O)cc1`, the cytotoxicity at 70.5 h is -18.1%.

For the compound `O=C1C(CS(=O)(=O)Nc2ccc(Cl)cc2)=NC(=O)n2cccc21`, the cytotoxicity at 70.5 h was -26.2%.

For `Cc1cccc(NC2CCc3c2[nH]c(=O)n(C2CCCCC2)c3=O)c1C` (centres undefined), the cytotoxicity at 70.5 h is -19.3%.

As to `OCCNc1nc(Nc2ccccc2)c2nccnc2n1`, the cytotoxicity at 70.5 h was -0.149%.

For `CCn1nc2ccc(S(=O)(=O)N3CCSCC3)cn2c1=O`, the cytotoxicity at 70.5 h is -9.47%.

For the compound `Cc1cc(SCC(N)=O)nc(-c2ccc(F)cc2)n1`, the cytotoxicity at 70.5 h was -9.61%.

Take `CC(C)(C)c1noc(-c2ccnc(-n3cnc(C(=O)O)c3)c2)n1`: the cytotoxicity at 70.5 h was -4.5%.

With `O=C(O)c1cc(-c2ccccc2)ns1`, the cytotoxicity at 70.5 h was -20.2%.

Take `CC(C)c1noc(-c2ccc(-n3cnc(C(=O)O)c3)nc2)n1`: the cytotoxicity at 70.5 h was -15.8%.

In the case of `CC(C)c1noc(-c2ccnc(-n3cnc(C(=O)O)c3)c2)n1`, the cytotoxicity at 70.5 h is -14.7%.

Turning to `O=C(c1cnc2ccc(Cl)cc2c1NCc1ccco1)N1CCCCC1`, the cytotoxicity at 70.5 h turned out to be 23.3%.

For `COc1cccc(C(c2c(C)n[nH]c2O)c2c(C)n[nH]c2O)c1OC`, the cytotoxicity at 70.5 h is -11.7%.

For `CCc1c(C)n(CC(C)=O)c2nc3ccccc3n2c1=O`, the cytotoxicity at 70.5 h is -18.1%.

As to `Cc1c(C(=O)N2CCN(c3ncccn3)CC2)n(C)c2ccc(Cl)cc12`, the cytotoxicity at 70.5 h was -7.85%.

Turning to `CC(=O)c1cccc(-n2nc(C(C)=O)c(C(C)=O)c2C)c1`, the cytotoxicity at 70.5 h was -2.25%.

As for `CC(=O)c1nn(-c2ccccc2Cl)c(C)c1C(C)=O`, the cytotoxicity at 70.5 h is -10.3%.

For `COC(=O)CC(c1ccc(OC)c(OC)c1OC)c1c(O)n[nH]c1C` (centres undefined), the cytotoxicity at 70.5 h was -15.1%.

With `CC(C)CC(NC(=O)Nc1ccc(F)c(Cl)c1)C(=O)O` (centres undefined), the cytotoxicity at 70.5 h was -8.78%.

On to `CC(=O)c1nn(-c2cccc(Cl)c2)c(C)c1C(C)=O`, for which the cytotoxicity at 70.5 h was -12.9%.

Turning to `OCCNc1nc(NCc2cccnc2)nc2nccnc12`, the cytotoxicity at 70.5 h came out at 16.3%.

`COCCNc1nc(NCCc2ccccc2)nc2nccnc12`: the cytotoxicity at 70.5 h was -1.44%.

Take `COc1ccc(-c2nnsc2C(=O)N2CCN(C(C)=O)CC2)cc1`: the cytotoxicity at 70.5 h is -12.8%.

With `COc1cc(C2CC(=O)Nc3c2c(=O)[nH]n3C2CCCCC2)ccc1O` (centres undefined), the cytotoxicity at 70.5 h is -12.4%.

In the case of `Cc1nc(CC(=O)N2CCC(c3ccn4nccc4n3)CC2)cs1`, the cytotoxicity at 70.5 h was 1.76%.

As for `CCC(=O)NC(Cc1cc(N(C)C)nc(C2CC2)n1)c1ccccc1` (centres undefined), the cytotoxicity at 70.5 h is -2.39%.

For `CS(=O)(=O)N1CCc2ccc(C(=O)N3CCn4ncnc4C3)cc21`, the cytotoxicity at 70.5 h is -1.85%.

For the compound `Cc1cc(=O)[nH]c(NC2CCN(S(=O)(=O)c3ccccc3)CC2)n1`, the cytotoxicity at 70.5 h was -2.77%.

In the case of `Cc1nc2c(c(=O)[nH]1)CN(Cc1ccc3c(c1)CCCN3C)CC2`, the cytotoxicity at 70.5 h stood at 1.02%.

For `O[C@@H]1C[C@H]2CN(Cc3ccccc3)[C@H](Cc3ccccc3)CN2C1`, the cytotoxicity at 70.5 h turned out to be 27.4%.

With `Cc1ccc(-c2nc(C3CCN(C(=O)c4cnn(C)c4)CC3)no2)cn1`, the cytotoxicity at 70.5 h is 24.5%.

Take `Cc1nc(C)c(C(=O)N2CCc3nnc(C4CCCCN4C)n3CC2)s1` (centres undefined): the cytotoxicity at 70.5 h is -8.99%.

As for `COc1cc(CN2CCCC[C@]3(C)NC(=O)CC[C@H]23)ccc1F`, the cytotoxicity at 70.5 h was -6.42%.

As for `COCCC(=O)NCc1ccc(-c2ccccc2C(=O)O)cn1`, the cytotoxicity at 70.5 h was -6.35%.

Consider `Fc1ccc(Nc2ccc(C3CCN(Cc4ncc[nH]4)CC3)nc2)nc1`, for which the cytotoxicity at 70.5 h is -4.32%.

On to `O=C(c1cnco1)N1CCC(Cc2cccc3ncccc23)CC1`, for which the cytotoxicity at 70.5 h was determined as 20.4%.

With `COCCC(=O)N1CCC(c2nnc(-c3ccsc3)o2)CC1`, the cytotoxicity at 70.5 h is -6.73%.

Take `Oc1cc(C2CCCCN2Cc2cccs2)nc(-c2ccncc2)n1` (centres undefined): the cytotoxicity at 70.5 h was -11.8%.

As for `Cc1ccc(C)c(CSc2nnc(C(N)Cc3ccccc3)o2)c1` (centres undefined), the cytotoxicity at 70.5 h is -14.6%.

For the compound `CC(CNCc1ccc(Cl)cc1)Oc1ccccn1` (centres undefined), the cytotoxicity at 70.5 h is -10%.

As to `CC(CNCc1ccc2c(c1)n(C)c(=O)n2C)Oc1ccccn1` (centres undefined), the cytotoxicity at 70.5 h was -24.7%.

For `c1cc(NCc2ccncc2)nc(C2CCCN2)c1` (centres undefined), the cytotoxicity at 70.5 h was 2.66%.

Regarding `CS(=O)(=O)NCc1cc(=O)n2c(n1)CN(Cc1ccco1)CCC2`, the cytotoxicity at 70.5 h is -1.24%.

With `CC(C)N1CCO[C@H]2CN(C(=O)Cc3cccs3)C[C@H]21`, the cytotoxicity at 70.5 h is -3.28%.

For the compound `COCCN1CCO[C@@H]2CN(C(=O)Cc3ccccc3)CC[C@@H]2C1`, the cytotoxicity at 70.5 h is -0.0515%.

On to `CN(C)C(=O)COCc1nnc2n1CCN(Cc1ccoc1)C2`, for which the cytotoxicity at 70.5 h was -3.1%.

With `OCCN1CCOC2(CCCN(c3ncc(F)cn3)C2)C1` (centres undefined), the cytotoxicity at 70.5 h is -3.36%.

For `CN1CCCn2c(nc(CNS(=O)(=O)C3CC3)cc2=O)C1`, the cytotoxicity at 70.5 h was -1.98%.

Consider `O=C(C1CN(CC2CCOCC2)CC12CCOCC2)N1CCCC1` (centres undefined), for which the cytotoxicity at 70.5 h is -2.27%.

For the compound `CC(C)Nc1nc2c(c(N(C)C)n1)CCN(Cc1nccn1C)CC2`, the cytotoxicity at 70.5 h is 10.1%.

With `Cc1cnc(N2CCC3(CC2)CN(c2ccsc2)C(=O)CO3)nc1`, the cytotoxicity at 70.5 h is -5%.

In the case of `COCCN1CCN(S(C)(=O)=O)Cc2ccc(C)nc21`, the cytotoxicity at 70.5 h is -2.02%.

In the case of `CCCS(=O)(=O)N1CCN(CCOC)c2nc(C)ccc2C1`, the cytotoxicity at 70.5 h was -8.9%.

As for `CCN1CCOCC12CCN(C(=O)Cc1cccs1)CC2`, the cytotoxicity at 70.5 h is -8.5%.

For `Cc1ccc2c(n1)N(CC1CC1)CCN(S(=O)(=O)C1CC1)C2`, the cytotoxicity at 70.5 h was -5.85%.

For the compound `Fc1ccc(CNCC2Cn3nncc3CO2)cc1` (centres undefined), the cytotoxicity at 70.5 h was -7.4%.

As for `COCC(=O)N1CCCC2(COCCN(CCN(C)C)C2)C1` (centres undefined), the cytotoxicity at 70.5 h worked out at 8.27%.

Turning to `CNC(=O)c1cnc2n1CCN(Cc1cccnc1)C2`, the cytotoxicity at 70.5 h was -2.74%.
